Experimental data taken from US6914045B2, “Glycopeptide antibiotics” (Wyeth Holdings Corporation, priority 2001, dated 2005).
In brackets after ≈: the same amount, converted by molar mass.

Tests used:
Experiment in all cases: in vitro antibacterial evaluation, MIC by broth dilution
Type in all cases: cell-based
[1] = test system: Enterococcus sp.; conditions: broth dilution, 18 hours at 35° C.
Description: (§1) Methods for in vitro Antibacterial Evaluation (Table 1)
(§2) The minimum inhibitory concentration (MIC), the lowest concentration of the antibiotic which inhibits growth of the test organism, is determined by the broth dilution method using Muller-Hinton II […] (Baltimore Biological Laboratories) following the recommendations of the National Committee for Clinical Laboratory Standards [Methods for dilution antimicrobial susceptibility tests for bacteria that grow aerobically, approved standard M7-A2, National Committee for Clinical Laboratory Standards, Villanova, Pa.].
(§3) An inoculum level of 5×10^5 CFU/mL, and a range of antibiotic concentrations (64-0.06 μg/mL) is used. […] The test organisms include a spectrum of Gram-positive bacteria comprised of Staphylococcus sp., Streptococcus sp. and Enterococcus sp. These organisms include recent clinical isolates that are resistant to methicillin, penicillin and/or vancomycin.

[2] = test system: Staphylococcus sp.; conditions: broth dilution, 18 hours at 35° C.; for MIC Staphylococcus aureus (GC 1131): strain GC 1131
Description: as §1, §2, §3

[3] = test system: Streptococcus sp.; conditions: broth dilution, 18 hours at 35° C.
Description: as §1, §2, §3

[4] = test system: Escherichia coli; conditions: 18 hours at 35° C.

COc1ccc2cc(C3OCC4OC(OC5C(CO)OC(Oc6ccc(CC7NC(=O)C(C(C)c8ccccc8)NC(=O)CNC(=O)C(CO)NC(=O)C(CC8CNC(=N)N8C8OC(CO)C(O)C(O)C8O)NC(=O)C(CC8CNC(=N)N8)NC7=O)cc6)C(O)C5O)C(O)C(O)C4O3)ccc2c1 (centres unmarked) [Example 190]
MIC Enterococcus avium (GC 4558) [1]: 16 µg/mL (≈ 11.2 µM) | MIC Enterococcus faecalis (ATCC 29212) [1]: 32 µg/mL (≈ 22.4 µM) | MIC Enterococcus faecalis (GC 2242) [1]: 32 µg/mL (≈ 22.4 µM) | MIC Enterococcus faecalis (GC 2691) [1]: 32 µg/mL (≈ 22.4 µM) | MIC Enterococcus faecalis (GC 3059) [1]: 32 µg/mL (≈ 22.4 µM) | MIC Enterococcus faecalis (GC 4552) [1]: 32 µg/mL (≈ 22.4 µM) | MIC Enterococcus faecalis (GC 4553) [1]: 32 µg/mL (≈ 22.4 µM) | MIC Enterococcus faecalis (GC 4554) [1]: 32 µg/mL (≈ 22.4 µM) | MIC Enterococcus faecalis (GC 6189) [1]: 32 µg/mL (≈ 22.4 µM) | MIC Enterococcus faecium (GC 2243) [1]: 32 µg/mL (≈ 22.4 µM) | MIC Enterococcus faecium (GC 4556) [1]: 32 µg/mL (≈ 22.4 µM) | MIC Enterococcus faecium (GC 4557) [1]: 8 µg/mL (≈ 5.59 µM) | MIC Enterococcus faecalis (ATCC 29212) ([1]; inoculum 5×10^5 CFU/mL, strain ATCC 29212): 32 µg/mL (≈ 22.4 µM) | MIC Enterococcus faecalis (GC 2242) ([1]; inoculum 5×10^5 CFU/mL, strain GC 2242): 32 µg/mL (≈ 22.4 µM) | MIC Enterococcus faecium (GC 2243) ([1]; inoculum 5×10^5 CFU/mL, strain GC 2243): 32 µg/mL (≈ 22.4 µM) | MIC Enterococcus faecalis (GC 2691) ([1]; inoculum 5×10^5 CFU/mL, strain GC 2691): 32 µg/mL (≈ 22.4 µM) | MIC Enterococcus faecalis (GC 3059) ([1]; inoculum 5×10^5 CFU/mL, strain GC 3059): 32 µg/mL (≈ 22.4 µM) | MIC Enterococcus faecalis (GC 4552) ([1]; inoculum 5×10^5 CFU/mL, strain GC 4552): 32 µg/mL (≈ 22.4 µM) | MIC Enterococcus faecalis (GC 4553) ([1]; inoculum 5×10^5 CFU/mL, strain GC 4553): 32 µg/mL (≈ 22.4 µM) | MIC Enterococcus faecalis (GC 4554) ([1]; inoculum 5×10^5 CFU/mL, strain GC 4554): 32 µg/mL (≈ 22.4 µM) | MIC Enterococcus faecium (GC 4556) ([1]; inoculum 5×10^5 CFU/mL, strain GC 4556): 32 µg/mL (≈ 22.4 µM) | MIC Enterococcus faecium (GC 4557) ([1]; inoculum 5×10^5 CFU/mL, strain GC 4557): 8 µg/mL (≈ 5.59 µM) | MIC Enterococcus avium (GC 4558) ([1]; inoculum 5×10^5 CFU/mL, strain GC 4558): 16 µg/mL (≈ 11.2 µM) | MIC Enterococcus faecalis (GC 6189) ([1]; inoculum 5×10^5 CFU/mL, strain GC 6189): 32 µg/mL (≈ 22.4 µM) | MIC Staphylococcus aureus (GC 1131) ([2]; inoculum 5×10^5 CFU/mL): 16 µg/mL (≈ 11.2 µM) | MIC Staphylococcus aureus (ATCC 29213) ([2]; strain ATCC 29213): 16 µg/mL (≈ 11.2 µM) | MIC Staphylococcus aureus (GC 1131) [2]: 16 µg/mL (≈ 11.2 µM) | MIC Staphylococcus aureus (GC 3051) ([2]; strain GC 3051): 16 µg/mL (≈ 11.2 µM) | MIC Staphylococcus aureus (GC 3053) ([2]; strain GC 3053): 16 µg/mL (≈ 11.2 µM) | MIC Staphylococcus aureus (GC 4541) ([2]; strain GC 4541): 8 µg/mL (≈ 5.59 µM) | MIC Staphylococcus aureus (GC 4542) ([2]; strain GC 4542): 4 µg/mL (≈ 2.79 µM) | MIC Staphylococcus aureus-SMITH (GC 4543) ([2]; strain GC 4543): 4 µg/mL (≈ 2.79 µM) | MIC Staphylococcus aureus (GC 4544) ([2]; strain GC 4544): 16 µg/mL (≈ 11.2 µM) | MIC Staphylococcus aureus (GC 4545) ([2]; strain GC 4545): 16 µg/mL (≈ 11.2 µM) | MIC Staphylococcus haemolyticus (GC 4546) ([2]; strain GC 4546): 8 µg/mL (≈ 5.59 µM) | MIC Coagulase Negative Staphylococcus (GC 4547) ([2]; strain GC 4547): 8 µg/mL (≈ 5.59 µM) | MIC Coagulase Negative Staphylococcus (GC 4548) ([2]; strain GC 4548): 8 µg/mL (≈ 5.59 µM) | MIC Coagulase Negative Staphylococcus (GC 4549) ([2]; strain GC 4549): 8 µg/mL (≈ 5.59 µM) | MIC Coagulase Negative Staphylococcus (GC 4551) ([2]; strain GC 4551): 16 µg/mL (≈ 11.2 µM) | MIC Coagulase Negative Staphylococcus (GC 6257) ([2]; strain GC 6257): 8 µg/mL (≈ 5.59 µM) | MIC Streptococcus agalactiae (GC 4564) [3]: 16 µg/mL (≈ 11.2 µM) | MIC Streptococcus pneumoniae (ATCC 6301) [3]: 8 µg/mL (≈ 5.59 µM) | MIC Streptococcus pneumoniae (GC 1894) [3]: 4 µg/mL (≈ 2.79 µM) | MIC Streptococcus pneumoniae (GC 4565) [3]: 8 µg/mL (≈ 5.59 µM) | MIC Streptococcus pyogenes (GC 4563) [3]: 16 µg/mL (≈ 11.2 µM) | MIC Streptococcus pneumoniae (ATCC 6301) ([3]; inoculum 5×10^5 CFU/mL, strain ATCC 6301): 8 µg/mL (≈ 5.59 µM) | MIC Streptococcus pneumoniae (GC 1894) ([3]; inoculum 5×10^5 CFU/mL, strain GC 1894): 4 µg/mL (≈ 2.79 µM) | MIC Streptococcus pyogenes (GC 4563) ([3]; inoculum 5×10^5 CFU/mL, strain GC 4563): 16 µg/mL (≈ 11.2 µM) | MIC Streptococcus agalactiae (GC 4564) ([3]; inoculum 5×10^5 CFU/mL, strain GC 4564): 16 µg/mL (≈ 11.2 µM) | MIC Streptococcus pneumoniae (GC 4565) ([3]; inoculum 5×10^5 CFU/mL, strain GC 4565): 8 µg/mL (≈ 5.59 µM) | MIC Escherichia coli (ATCC 25922) [4]: >64 µg/mL | MIC Escherichia coli (GC 4559) [4]: >64 µg/mL | MIC Escherichia coli (GC 4560) [4]: 16 µg/mL (≈ 11.2 µM)
